What was measured:
human PHD2 [1] = biological target: T1, human PHD2 (Homo sapiens (Human), UniProt Q9GZT9); experiment: Test 1: human PHD2 inhibitory activity, [14C]-2-oxoglutarate to [14C]-succinic acid radiometric assay with HIF-1α peptide; format: biochemical; conditions: test compound's concentration 1 μM; Test 1, [14C]-2-oxoglutarate radiometric assay; read-out: Percent inhibition (% at 1 μM)
Method in brief: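 Activity was measured by radiometric counting of [14C]-succinic acid formed during prolyl hydroxylation of a 19-mer HIF-1α peptide, after DNPH removal of residual [14C]-2-oxoglutarate. Baculovirus-expressed human PHD2 lysate (4 μg/well) reacted for 15 min at 37° C. Substrate-free and compound-free wells served as reference points for inhibition.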

human PHD2 [2] = biological target: T1, human PHD2; experiment: Test 2: human PHD2 inhibitory activity, fluorescence polarization assay of HIF-1α peptide proline hydroxylation; format: biochemical; conditions: for IC50: human PHD2, fluorescence polarization assay, 20-min incubation at 30° C.; for inhibition at 1 µM: test compound's concentration 1 μM, Test 2, fluorescence polarization assay, read-out: Percent inhibition (% at 1 μM)
Method in brief: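 A 19-mer HIF-1α peptide served as substrate, with the reaction started by 40 ng/well human PHD2 (cell lysate of NM_022051-transfected cells) and run 20 min at 30° C. before EDTA stop. Hydroxylated product bound anti-HIF-OH antibody, read by fluorescence polarization versus no-compound control.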

T1 sequence (Q9GZT9 whole entry): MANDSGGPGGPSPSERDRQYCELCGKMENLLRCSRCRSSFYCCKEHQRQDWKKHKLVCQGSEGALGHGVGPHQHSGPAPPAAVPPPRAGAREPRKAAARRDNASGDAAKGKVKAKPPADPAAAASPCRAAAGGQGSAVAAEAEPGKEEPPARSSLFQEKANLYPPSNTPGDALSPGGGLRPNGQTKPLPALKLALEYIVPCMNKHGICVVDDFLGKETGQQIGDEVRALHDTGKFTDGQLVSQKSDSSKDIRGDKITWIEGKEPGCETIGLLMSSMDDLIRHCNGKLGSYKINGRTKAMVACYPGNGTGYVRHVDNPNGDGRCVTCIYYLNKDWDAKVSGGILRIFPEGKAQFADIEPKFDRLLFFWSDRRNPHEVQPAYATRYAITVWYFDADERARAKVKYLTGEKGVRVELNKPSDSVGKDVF

inhibition at 1 µM (human PHD2 [1]) | IC50 (human PHD2 [2]) | inhibition at 1 µM (human PHD2 [2]) | Compound
99% | 66 nM | 90% | Cc1cccc(Oc2ccc(CN3CCC(O)=C(C(=O)NCC(=O)O)C3=O)cn2)c1 [Ex. 1-255]
101% | 66 nM | 91% | O=C(O)CNC(=O)C1=C(O)CCN(Cc2ccc(Oc3cccc(F)c3)nc2)C1=O [Ex. 1-256]
95% | 75 nM | 89% | Cc1cccc(Oc2ccc(CN3CCC(O)=C(C(=O)NCC(=O)O)C3=O)cc2)c1 [Ex. 1-257]
94% | 63 nM | 90% | O=C(O)CNC(=O)C1=C(O)CCN(Cc2ccc(Oc3cccc(F)c3)cc2)C1=O [Ex. 1-258]
92% | 96 nM | 91% | O=C(O)CNC(=O)C1=C(O)CCN(Cc2ccc(Oc3ccc(F)cc3)cn2)C1=O [Ex. 1-259]
99% |  | 97% | O=C(O)CNC(=O)C1=C(O)CCN(Cc2ccc(Sc3ccc(Cl)cc3)nc2)C1=O [Ex. 1-261]
88% |  | 87% | O=C(O)CNC(=O)C1=C(O)CCN(Cc2ccc(OC3CCC3)cc2)C1=O [Ex. 1-262]
81% |  | 83% | Cc1ccccc1-n1ncc(CN2CCC(O)=C(C(=O)NCC(=O)O)C2=O)c1C [Ex. 1-263]
98% | 24 nM | 100% | O=C(O)CNC(=O)C1=C(O)CCN(Cc2ccc(Oc3ccc(Cl)cc3)cc2)C1=O [Ex. 1-265]
83% |  | 89% | O=C(O)CNC(=O)C1=C(O)CC2(CC2)N(Cc2ccc(C3CC3)cc2)C1=O [Ex. 1-266]
81% |  | 86% | O=C(O)CNC(=O)C1=C(O)CC2(CCC2)N(Cc2ccc(OCC3CC3)cc2)C1=O [Ex. 1-267]
78% |  | 85% | Cc1c(CN2CCC(O)=C(C(=O)NCC(=O)O)C2=O)cnn1-c1ccccc1 [Ex. 1-268]
85% |  | 89% | O=C(O)CNC(=O)C1=C(O)CCN(Cc2ccc3c(c2)CCC3)C1=O [Ex. 1-269]
88% |  | 90% | O=C(O)CNC(=O)C1=C(O)CCN(Cc2ccc3sccc3c2)C1=O [Ex. 1-270]
91% |  | 91% | O=C(O)CNC(=O)C1=C(O)CCN(Cc2ccc(OC3CCCC3)cc2)C1=O [Ex. 1-271]
65% |  | 82% | CC1(C)CC(O)=C(C(=O)NCC(=O)O)C(=O)N1Cc1ccc(OC2CCCC2)cc1 [Ex. 1-272]
99% | 112 nM | 92% | Cc1ccc(Oc2ccc(CN3CCC(O)=C(C(=O)NCC(=O)O)C3=O)cc2)cn1 [Ex. 1-273]
92% | 108 nM | 94% | O=C(O)CNC(=O)C1=C(O)CCN(Cc2ccc(Oc3ccccc3F)nc2)C1=O [Ex. 1-274]
85% | 99 nM | 94% | Cc1ccccc1Oc1ccc(CN2CCC(O)=C(C(=O)NCC(=O)O)C2=O)cn1 [Ex. 1-275]
93% |  | 92% | Cc1ccc(Oc2ccc(CN3CC(C)(C)C(O)=C(C(=O)NCC(=O)O)C3=O)cn2)cc1 [Ex. 1-276]
108% |  | 97% | Cc1ccc(Oc2ccc(CN3CC4(CC4)C(O)=C(C(=O)NCC(=O)O)C3=O)cn2)cc1 [Ex. 1-277]
93% |  | 94% | Cc1ccc(Oc2ccc(CN3CC4(CCC4)C(O)=C(C(=O)NCC(=O)O)C3=O)cn2)cc1 [Ex. 1-278]

inhibition at 1 µM (human PHD2 [1]) | IC50 (human PHD2 [2]) | inhibition at 1 µM (human PHD2 [2]) | Compound
90% |  | 91% | O=C(O)CNC(=O)C1=C(O)C2(CC2)CN(Cc2ccc(OCC3CC3)cc2)C1=O [Ex. 1-279]
109% |  | 98% | Cc1ccc(Oc2ccc(CN3C(=O)C(C(=O)NCC(=O)O)=C(O)CC34CCC4)cn2)cc1 [Ex. 1-280]
70% |  | 77% | CC1(C)CC(O)=C(C(=O)NCC(=O)O)C(=O)N1Cc1csc(-c2ccccc2)n1 [Ex. 1-281]
101% | 77 nM | 99% | O=C(O)CNC(=O)C1=C(O)CCN(Cc2ccc(Oc3ccccc3F)cc2)C1=O [Ex. 1-282]
99% | 63 nM | 97% | Cc1ccccc1Oc1ccc(CN2CCC(O)=C(C(=O)NCC(=O)O)C2=O)cc1 [Ex. 1-283]
107% | 40 nM | 103% | O=C(O)CNC(=O)C1=C(O)CCN(Cc2ccc(Oc3cccc(Cl)c3)nc2)C1=O [Ex. 1-284]
106% | 43 nM | 100% | O=C(O)CNC(=O)C1=C(O)CCN(Cc2ccc(Oc3cccc(C(F)(F)F)c3)nc2)C1=O [Ex. 1-285]
95% | 61 nM | 96% | COc1cccc(Oc2ccc(CN3CCC(O)=C(C(=O)NCC(=O)O)C3=O)cc2)c1 [Ex. 1-286]
94% | 45 nM | 104% | O=C(O)CNC(=O)C1=C(O)CCN(Cc2ccc(Oc3cccc(OC(F)(F)F)c3)nc2)C1=O [Ex. 1-287]
90% | 146 nM | 91% | O=C(O)CNC(=O)C1=C(O)CCN(Cc2ccc(Oc3ccc(F)cn3)cc2)C1=O [Ex. 1-288]
95% | 68 nM | 98% | O=C(O)CNC(=O)C1=C(O)CCN(Cc2ccc(Oc3ccc(Cl)cn3)cc2)C1=O [Ex. 1-289]
63% |  | 86% | O=C(O)CNC(=O)C1=C(O)CCN(Cc2ccccc2Oc2ccc(F)cc2)C1=O [Ex. 1-290]
75% |  | 86% | O=C(O)CNC(=O)C1=C(O)CCN(Cc2ccc(OCC(F)(F)F)cc2)C1=O [Ex. 1-291]
83% |  | 86% | O=C(O)CNC(=O)C1=C(O)CCN(Cc2ccc(OCC(F)(F)F)c(F)c2)C1=O [Ex. 1-292]
35% |  | 33% | CC1(C)CC(O)=C(C(=O)NCC(=O)O)C(=O)N1Cc1cnc(-c2ccccc2)[nH]1 [Ex. 1-293]
51% |  | 68% | CC1(C)CC(O)=C(C(=O)NCC(=O)O)C(=O)N1Cc1nc(-c2ccccc2)cs1 [Ex. 1-294]
63% |  | 74% | CC1(C)CC(O)=C(C(=O)NCC(=O)O)C(=O)N1Cc1coc(-c2ccccc2)n1 [Ex. 1-295]
100% | 15 nM | 102% | O=C(O)CNC(=O)C1=C(O)CCN(Cc2ccc(Oc3ccc(C4CC4)cc3)nc2)C1=O [Ex. 1-296]
86% | 89 nM | 94% | Cc1ccc(Oc2ccc(CN3CCC(O)=C(C(=O)NCC(=O)O)C3=O)cc2)nc1 [Ex. 1-297]
84% | 79 nM | 94% | O=C(O)CNC(=O)C1=C(O)CCN(Cc2ccc(Oc3ccc(C(F)(F)F)cn3)cc2)C1=O [Ex. 1-298]
47% |  | 64% | Cn1nc(-c2ccccc2)cc1CN1C(=O)C(C(=O)NCC(=O)O)=C(O)CC1(C)C [Ex. 1-299]

Reference: US9422240B2, “Partially saturated nitrogen-containing heterocyclic compound” (TAISHO PHARMACEUTICAL CO., LTD, priority 2012, dated 2016)
